Assay results from patent publication US6458767B1, “Use of peptides inhibitory for thrombospondin dependent TGF-β activation in the treatment of kidney disease” (The UAB Research Foundation, priority 1994, dated 2002).

Legend:
TSP1 null mice = settings: literature; cited from earlier work
[1] = tested on: rats with anti-Thy1 disease; experiment: Glomerular MC-proliferation, MC-activation and macrophage influx in the anti-Thy1 model; type: in vivo, rat
Source text: (§1) Experimental design. Experimental mesangial proliferative glomerulonephritis was induced using the monoclonal mouse anti-Thy1 antibody OX-7. Peptides were continuously infused intravenously (i.v.) via jugular vein using osmotic minipumps starting sixteen hours after disease induction. The effects of the hexapeptide AAWSHW (SEQ ID NO:22) (that interferes with the TSP1-mature TGF-β interaction) or the LSKL-peptide (SEQ ID NO:21) (that blocks the TSP1-LAP interaction) were compared to a control peptide (SLLK) in the anti-Thy1 model. Tissues from different time points (days three, five, eight) of this experiment were analyzed in regard to mesangiolysis, macrophage-influx, MC-proliferation, MC-activation, microaneurysm and matrix formation, GEN proliferation, TSP1, TGF-β1 and 2, as well as TGF-βRI and RII. Functional parameters such as blood pressure, proteinuria, and creatinine clearance were also determined. On day eight, glomerular secretion of active TGF-β was determined in individual animals by incubating isolated glomeruli for twenty-four hours in DMEM and measuring TGF-β activity in glomerular supernatants using the NRK-bioassay.
(§2) Animal model Experimental mesangial proliferative glomerulonephritis (anti-Thy1 model) was induced in Sprague Dawley rats (180-200 g; Charles River, Sulzfeld, Germany) by a single injection of 1 mg/kg of the mouse monoclonal anti-Thy1 antibody OX-7 (European Collection of Animal Cell Culture, Salisbury, England). In this animal model, complete anti-Thy1 antibody binding occurs within an hour (Johnson et al. (1991) Am. J. Pathol. 138 (2), 313-21). To avoid potential interference of the LAP-peptides with anti-Thy1 antibody binding and subsequent mesangiolysis, the peptide treatment was started sixteen hours after disease induction, when binding of the anti-Thy1 antibody to the mesangium and subsequent mesangiolysis had already occurred. The peptides used in this study were synthesized, purified, and analyzed as described elsewhere (Crawford et al. (1998) Cell 93, 1159-1170).
(§3) Renal biopsies as described previously (Hugo et al. (1997) J. Clin. Invest. 100, 786-794) were performed on days three and five, and the experiment was finished on day eight. To determine DNA incorporation into proliferating cells, each animal was injected intravenously with BrdU (50 mg/kg bw) ninety minutes before the second survival biopsy was taken on day five (peak of MC proliferation). Renal biopsies were fixed in methyl Carnoy's, 10% formalin and/or OCT and snap frozen. A twenty-four hour urine collection for measurement of protein and creatinine was done from day seven to eight, when maximal proteinuria occurs in this model (unpublished observation). Blood pressure measurements were done twice before and twice after disease induction. In renal biopsies, the frequency of glomerular microaneurysms, the number of infiltrating macrophages, the number of proliferating MC, the expression of the contractile protein α-sm actin as a marker of MC-activation, and the expression of TGF-β1, TGF-β2, TGF-βRI, TGF-βRII, TSP1, as well as of extracellular matrix proteins such as collagen I, collagen IV and fibronectin were determined. For TGF-β activity measurements in individual animals on day eight, glomeruli were isolated by differential sieving (Johnson et al. (1991) Am. J. Pathol. 138 (2), 313-21) and counted using five aliquots. Glomerular isolates were discarded if purity was less than 95%. 8000 glomeruli/ml were incubated in DMEM at 37° C. After a twenty-four hour incubation period, glomerular supernatants were stored by −70° C. until TGF-β activity measurements were done.
(§4) Peptide infusion. All peptides (at a concentration of 3.5 mg/ml) were continuously infused for seven days via a catheter in the right jugular vein using osmotic minipumps (Alzet Corp./Charles River, Sulzfeld, Germany). […]

[2] = tested on: activation of TGF-β by TSP1; settings: background, literature; cited from earlier work
[3] = tested on: rats with anti-Thy1 disease; experiment: Mesangiolysis, microaneurysm formation and GEN-proliferation in the anti-Thy1 model; type: in vivo, rat
Source text: as §1, §2, §3, §4

[4] = tested on: rats with anti-Thy1 disease; experiment: Glomerular immunostaining score for TGF-β1, TGF-β2, TGF-βRI, TGF-βRII and TSP1 in the anti-Thy1 model; type: in vivo, rat
Source text: as §1, §2, §3, §4

[5] = tested on: rats with anti-Thy1 disease; experiment: Functional parameters (proteinuria, creatinine clearance, blood urea nitrogen, systolic blood pressure) in the anti-Thy1 model; type: in vivo, rat
Source text: as §1, §2, §3, §4

[6] = tested on: rats with anti-Thy1 disease; experiment: Glomerular extracellular matrix formation (Masson's Trichrome, collagen I, collagen IV, fibronectin stains) in the anti-Thy1 model; type: in vivo, rat
Source text: as §1, §2, §3, §4

TGF-β = experiment: Glomerular secretion of active TGF-β (NRK-bioassay of supernatants of isolated glomeruli) in anti-Thy1 rats; type: in vivo, rat
Source text: as §1, §2
as §3, with “After a twenty-four hour incubation period, glomerular supernatants were stored by −70° C. until TGF-β activity measurements were done.” left out

KRFK: TGF-β activating peptide, KRFK amino acid sequence of the TSP1 molecule (listed as Homo sapiens)
histological changes in TSP1 null mice (TSP1 null mice): reverted toward wild type

Leu-Ser-Lys-Leu (LSKL; listed as Homo sapiens)
MC-activation α-sm actin (score 0-4) ([1]; day 3): 0.6 ± 0.3 score 0-4
MC-proliferation (OX-7 + /PCNA + cells/glomerulus) ([1]; day 3): 3.3 ± 0.6 cells/glomerulus
Macrophages (ED-1 + cells/glomerulus) ([1]; day 3): 4.3 ± 2.0 cells/glomerulus
MC-activation α-sm actin (score 0-4) ([1]; day 5): 2.5 ± 0.4 score 0-4
MC-proliferation (OX-7 + /BrdU + cells/glomerulus) ([1]; day 5): 3.9 ± 0.6 cells/glomerulus
MC-proliferation (OX-7 + /PCNA + cells/glomerulus) ([1]; day 5): 7.9 ± 1.0 cells/glomerulus
Macrophages (ED-1 + cells/glomerulus) ([1]; day 5): 1.0 ± 0.6 cells/glomerulus
MC-activation α-sm actin (score 0-4) ([1]; day 8): 2.4 ± 0.5 score 0-4
MC-proliferation (OX-7 + /PCNA + cells/glomerulus) ([1]; day 8): 4.6 ± 0.5 cells/glomerulus
Macrophages (ED-1 + cells/glomerulus) ([1]; day 8): 0.7 ± 0.5 cells/glomerulus
MC activation (de novo expression of α-sm-actin) ([1]; in words): did not significantly alter
block of activation of TGF-β by TSP1 [2]: able to block activation of TGF-β by TSP1
Glomerular Microaneurysm (in percent) ([3]; day 3): 16.7 ± 10.0%
Glomerular Microaneurysm (in percent) ([3]; day 5): 13.8 ± 19.9%
Glomerular Microaneurysm (in percent) ([3]; day 8): 2.2 ± 2.7%
Glomerular GEN-proliferation (double staining for RECA-1 and PCNA) ([3]; day three): 2.0±0.5
mesangiolysis scores ([3]; day three, scale 0-IV): 2.56±0.3
TGF-β1 (score 0-4) ([4]; day 3): 0.1 ± 0.1 score 0-4
TGF-β2 (score 0-4) ([4]; day 3): 0.2 ± 0.1 score 0-4
TGF-βRI (score 0-4) ([4]; day 3): 0.2 ± 0.2 score 0-4
TGF-βRII (score 0-4) ([4]; day 3): 0.2 ± 0.1 score 0-4
TSP I (score 0-4) ([4]; day 3): 0.3 ± 0.2 score 0-4
TGF-β1 (score 0-4) ([4]; day 5): 1.8 ± 0.6 score 0-4
TGF-β2 (score 0-4) ([4]; day 5): 1.2 ± 0.6 score 0-4
TGF-βRI (score 0-4) ([4]; day 5): 1.4 ± 0.3 score 0-4
TGF-βRII (score 0-4) ([4]; day 5): 1.3 ± 0.3 score 0-4
TSP I (score 0-4) ([4]; day 5): 1.4 ± 0.6 score 0-4
TGF-β1 (score 0-4) ([4]; day 8): 1.7 ± 0.6 score 0-4
TGF-β2 (score 0-4) ([4]; day 8): 0.6 ± 0.6 score 0-4
TGF-βRI (score 0-4) ([4]; day 8): 1.4 ± 0.4 score 0-4
TGF-βRII (score 0-4) ([4]; day 8): 0.9 ± 0.6 score 0-4
TSP I (score 0-4) ([4]; day 8): 0.5 ± 0.3 score 0-4
Proteinuria (mg/24 hours) ([5]; day 8 (urine collection day seven to eight)): 24 ± 20 mg/24 hours
twenty-four hour proteinuria ([5]; days seven to eight): 24±20 mg/twenty-four hours
Blood urea nitrogen ([5]; rat, in vivo): 33.2 ± 9.4 mg/dL
Matrix Collagen 1 (score 0-4) ([6]; day 3): 0.1 ± 0.1 score 0-4
Matrix Collagen IV (score 0-4) ([6]; day 3): 1.0 ± 0.2 score 0-4
Matrix Fibronectin (score 0-4) ([6]; day 3): 1.2 ± 0.4 score 0-4
Matrix Trichrome (score 0-3) ([6]; day 3): 0.4 ± 0.2 score 0-3
Matrix Collagen 1 (score 0-4) ([6]; day 5): 0.7 ± 0.4 score 0-4
Matrix Collagen IV (score 0-4) ([6]; day 5): 1.9 ± 0.3 score 0-4
Matrix Fibronectin (score 0-4) ([6]; day 5): 1.9 ± 0.6 score 0-4
Matrix Trichrome (score 0-3) ([6]; day 5): 0.7 ± 0.2 score 0-3
Matrix Collagen 1 (score 0-4) ([6]; day 8): 0.8 ± 0.5 score 0-4
Matrix Collagen IV (score 0-4) ([6]; day 8): 1.2 ± 0.4 score 0-4
Matrix Fibronectin (score 0-4) ([6]; day 8): 0.9 ± 0.6 score 0-4
Matrix Trichrome (score 0-3) ([6]; day 8): 1.2 ± 0.3 score 0-3
extracellular matrix formation as determined by Trichrome staining ([6]; day eight, in words): markedly suppressed
glomerular accumulation of collagen I, collagen IV and fibronectin by immunohistochemistry ([6]; time course of anti-Thy1 disease, in words): reduced glomerular accumulation of all three extracellular matrix proteins
Active TGF-β (colonies > 62 um) (TGF-β; day 8 glomeruli, 24 h supernatant, NRK-bioassay, continuous i.v. peptide infusion): 154 ± 50 colonies > 62 um
glomerular secretion of active TGF-β compared to control peptide (SLLK) treated rats (TGF-β; day eight glomeruli, p<0.01): markedly reduced
